Patent US20060062758A1, “Tight junction modulator peptide PN159 for enhanced mucosal delivery of therapeutic compounds” (Nastech Pharmaceutical Comapny Inc., priority 2004, published 2006)

Columns and labels:
[1] = Chemical stability of PN159 in solution (stability indicating HPLC); assay type: physicochemical; details: pH 9 and/or elevated temperature, e.g., 40 to 50° C.
Protocol: The chemical stability of the PN159 was determined under therapeutically relevant storage conditions. A stability indicating HPLC method was employed. Solutions (50 mM) were stored at various pH (4.0, 7.3, and 9.0) and temperature (5° C., 25° C., 35° C., 40° C., and 50° C.) conditions. Samples at pH 4 contained 10 mM citrate buffer. Samples at pH 7.3 and 9.0 contained 10 mM phosphate buffer. Representative storage stability data (including the Arrhenius plot) are depicted in FIG. 6. […] For example, at 5° C. and pH 4.0 or pH7.3, there was essentially 100% recovery of PN159 for six month storage. […] The pH range of 4.0 to 7.3 and the temperature range of refrigerated to ambient are most relevant for intranasal formulations.

[2] = system: EpiAirway™ Cell Membrane (mucosal epithelial cell layer); assay: Permeation kinetics across the in vitro epithelial tissue model; details: for Perm(x)/Perm(159) +/− SEM*: mean values from multiple repeats; for PTH1-34 permeation: 2 mg/ml PTH, pH 4.5
Protocol: The EpiAirway™ system was developed by MatTek Corp (Ashland, Mass.) as a model of the pseudostratified epithelium lining the respiratory tract. The epithelial cells are grown on porous membrane-bottomed cell culture inserts at an air-liquid interface, which results in differentiation of the cells to a highly polarized morphology. The apical surface is ciliated with a microvillous ultrastructure and the epithelium produces mucus (the presence of mucin has been confirmed by immunoblotting). The inserts have a diameter of 0.875 cm, providing a surface area of 0.6 cm^2. The cells are plated onto the inserts at the factory approximately three weeks before shipping. One “kit” consists of 24 units.
A. A “kit” of 24 EpiAirway™ units can routinely be employed for evaluating five different formulations, each of which is applied to quadruplicate wells. Each well is employed for determination of permeation kinetics (4 time points), transepithelial electrical resistance (TER). An additional set of wells is employed as controls, which are sham treated during determination of permeation kinetics, but are otherwise handled identically to the test sample-containing units for determinations of transepithelial resistance and viability.
B. In all experiments, the mucosal delivery formulation to be studied is applied to the apical surface of each unit in a volume of 100 μL, which is sufficient to cover the entire apical surface. An appropriate volume of the test formulation at the concentration applied to the apical surface (no more than 100 μL is generally needed) is set aside for subsequent determination of concentration of the active material by ELISA or other designated assay.
D. In order to minimize potential sources of error and avoid any formation of concentration gradients, the units are transferred from one 0.9 mL-containing well to another at each time point in the study. These transfers are made at the following time points, based on a zero time at which the 100 μL volume of test material was applied to the apical surface: 15 minutes, 30 minutes, 60 minutes, and 120 minutes.
F. At the completion of each time point, the medium is removed from the well from which each unit was transferred, and aliquotted into two tubes (one tube receives 700 μL and the other 200 μL) for determination of the concentration of permeated test material and, in the event that the test material is cytotoxic, for release of the cytosolic enzyme, lactate dehydrogenase, from the epithelium. These samples are kept in the refrigerator if the assays are to be conducted within 24 hours, or the samples are subaliquotted and kept frozen at −80° C. until thawed once for assays. Repeated freeze-thaw cycles are to be avoided.
EIA kit (p/n S-1178(EIAH6101) was purchased from Peninsula Laboratories Inc. (Division of BACHEM, San Carlos, Calif., 800-922-1516). 17×120 mm polypropylene conical tubes (p/n 352097, Falcon, Franklin Lakes, N.J.) were used for all sample preparations. Eight standards were used for PTH quantitation. The rest of the assay procedure was the same as the kit inserts.
The instant study was designed to evaluate the effect of PN159 itself or in combination with additional permeation enhancers on PTH permeation. The PN159 concentrations evaluated are 25, 50, and 100 μM. The additional permeation enhancers are 45 mg/ml M-β-CD, 1 mg/ml DDPC, and 1 mg/ml EDTA. Sorbitol was used as a tonicifier (146-190 mM) to adjust the osmolarity of formulations to 220 mOsm/kg. The formulation pH was fixed at 4.5. PTH was chosen as a model peptide in this example. 2 mg/ml PTH was combined with PN159 with or without additional permeation enhancers. The combination was tested using an in vitro epithelial tissue model to monitor PTH permeation, transepithelial electrical resistance (TER), and the cytotoxicity of the formulation by LDH assay.
The effect of PN159 on permeation of MC-4RA was evaluated in this study.

[3] = MTT assay (cell viability), in vitro epithelial tissue model; assay type: cell-based; details: human, pH 5; galantamine lactate 40 mg/ml and PN159 at all concentrations tested (25, 50, 100 μM)

With `CC(C)C[C@H](NC(=O)[C@H](C)NC(=O)[C@H](CCCCN)NC(=O)[C@H](CC(C)C)NC(=O)[C@H](C)NC(=O)[C@H](CC(C)C)NC(=O)[C@H](CCCCN)NC(=O)[C@H](CC(C)C)NC(=O)[C@H](C)NC(=O)[C@H](CC(C)C)NC(=O)[C@@H](N)CCCCN)C(=O)N[C@@H](CCCCN)C(=O)N[C@@H](C)C(=O)N[C@@H](C)C(=O)N[C@@H](CC(C)C)C(=O)N[C@@H](CCCCN)C(=O)N[C@@H](CC(C)C)C(=O)N[C@@H](C)C(N)=O` [PN159] the “chemical stability (in words)” value [1] was “rapid deterioration”, the “Perm(x)/Perm(159) +/− SEM*” value ([2]; Example 7, length changes, relative to PN159) was 1.00 and the “permeation of MC-4RA” value ([2]; PN159 5, 25, 50, 100 μM, 10 mg/ml MC-4RA, 45 mg/ml M-β-CD, pH 4) was “significantly enhance epithelial permeation”. For the same compound, the PTH1-34 permeation ([2]; PN159 25, 50, 100 μM without additional enhancers) was “Significant increase in PTH permeation”, the PTH1-34 permeation ([2]; PN159 combined with 45/1/1 mg/ml M-b-CD/DDPC/EDTA) was “Additional increase in PTH permeation” and the “Perm(x)/Perm(159) +/− SEM” value ([2]; Table 6, D-amino acid substitutions, relative to PN159) was 1.00 +/− 0.13. The “Perm(x)/Perm(159) +/− SEM*” value ([2]; Table 9, hydrophobic faces, relative to PN159) was 1.00 +/− 0.13 and the viability [3] was over 80%.
